As usually defined, the Kd is the concentration at which binding is half-saturated. Broadly, the IC50 is the concentration at which inhibition is half-maximal.

The structures appear in SMILES notation. Where two headings read alike, the source gives them in different places.

The target in assay [1] is human MLKL (full length) (Homo sapiens (Human), UniProt Q8NB16). The experiment in a line: KINOMEscan binding assay, human MLKL (full length). The settings on record: hMLKL, Table 25; read-out: MLKL (KD). Summed up:
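Active-site competition binding: DNA-tagged kinase (T7 phage fusion from BL21-derived E. coli lysate, or HEK-293-expressed) captured on immobilized-ligand beads, with bound kinase in the eluate quantified by qPCR. Compounds ran as 11-point 3-fold dilutions, 1% DMSO, top 30,000 nM for most. Kd came from a Hill fit (slope −1).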

Assay [2] relates to Immortalised Mouse Dermal Fibroblasts (MDFs). The experiment in a line: Cellular assay: inhibition of TSI induced necroptosis, CellTitre-Glo viability. Particulars: Mus musculus, Fibroblast, MDF, 3 hours TSI cocktail, read-out: Inhibition of TSI-induced necroptosis (IC50 cell-based assay) in MDF. How it is done:
Cellular Assay: Screening Compounds for Inhibition of TSI Induced Necroptosis in, 384 Well Plate Format.
• Cell Line ID: Immortalised Mouse Dermal Fibroblasts (MDFs). • Cell Concentration (cells/well): Final cell density is 2200 cells per well. • Cell growth medium: DMEM medium+7.4% Fetal Bovine Serum (FBS). Cells are cultured in Corning 150 cm^2 tissue culture flasks with vented caps at 37° C./10% CO2. • Incubation: Plates were incubated for 30 minutes following addition of compounds and then 3 hours incubation with death stimuli (TSI cocktail) at 37° C./10% CO2 in a humidified incubator. • Compound concentration: 36 μM starting concentration, 1:3 dilution, 10 point • DMSO final concentration (% v/v): 0.3%. Compounds in TSI Cocktail (T: TNF; S: Smac Mimetic; I: IDN-6556) and their Final Concentrations: • rhTNF (100 ng/ml) • Compound a (500 nM)—Smac Mimetic, Tetralogic and SYNthesis Med Chem • IDN-6556 (10 μM)—Selleckchem (S7775)
The cellular assay was carried out according to the following steps: • 1. Each well was prepared by sequential addition of: • a. 40 μL of cell suspension (5.5×10^4 cells/mL) was added to each well to provide a final cell concentration of 2,200 cells per well. • b. After 24 hours, DMSO (control; columns 1-2 and 23-24) or compound in DMSO—addition was performed using acoustic transfer of nL volumes of stock compound to give final test concentrations of 36, 12, 4, 1.3, 0.44, 0.148, 0.049, 0.016, 0.005 and 0.002 μM. All wells were backfilled with DMSO to a final total volume in the well of 100 nL. • c. Following compound/DMSO addition in step (b), Plates were incubated for 30 minutes at 37° C./10% CO2 in a humidified incubator and then 10 μL of 5×TSI cocktail (except to positive controls; columns 2 and 24) was added to each well. • 2. After 3 hours, plate was removed from the 37° C. incubator and equilibrated to room temperature for 15 minutes. • 3. 15 μL of room temperatured CellTitre-Glo2™ (Promega™) was added to each well. • 4. Shook plates for 2 minutes (˜600 rpm) and incubated at room temperature for 15 minutes to allow signal to stabilise. • 5. Read luminescence readout on a plate reader.
Percent viability was calculated for each compound according to equation (2):
[formula] • Wherein RawData is the readout of any cell containing a compound of the invention.
TA is the total activity provided by the luminescence readout from DMSO only wells (columns 2 and 24)=100% viability.
NSA is the non-specific activity provided by DMSO+TSI wells (columns 1 and 23)=0% viability • Curve fitting: 10-point titration curves are fitted with the 4-parameter logistic nonlinear regression model and the IC50 reported is the inflection point of the curve • Analysis: Data was loaded into Dotmatics™ and visualised using the Tibco@ • Spotfire™ software. 10 point titration curves were fitted with the 4 parameter logistic nonlinear regression model and the IC50 reported reflect the inflection point of the curve for curve fitting.
Assay involving the TSI cocktail (T: TNF; S: Smac mimetic; I: IDN-6556): TSI treatment ensures that cells specifically undergo necroptotic cell death. TNF activates the TNF receptor, Smac mimetic directs the signal away from proinflammatory signaling and toward the RIPK1/RIPK3-mediated cell death pathways, and IDN-6556 (Caspase inhibitor) ensures that the apoptotic response is blocked leaving only the programmed necrosis response. The compounds' activity (solution in DMSO) tested in this TSI-induced assay was evaluated by determining the number of viable cells in culture by measuring the amount of ATP present as measured by CelltiterGlo.

Sequence of human MLKL (full length) (Q8NB16 whole entry, the tested form may be a part): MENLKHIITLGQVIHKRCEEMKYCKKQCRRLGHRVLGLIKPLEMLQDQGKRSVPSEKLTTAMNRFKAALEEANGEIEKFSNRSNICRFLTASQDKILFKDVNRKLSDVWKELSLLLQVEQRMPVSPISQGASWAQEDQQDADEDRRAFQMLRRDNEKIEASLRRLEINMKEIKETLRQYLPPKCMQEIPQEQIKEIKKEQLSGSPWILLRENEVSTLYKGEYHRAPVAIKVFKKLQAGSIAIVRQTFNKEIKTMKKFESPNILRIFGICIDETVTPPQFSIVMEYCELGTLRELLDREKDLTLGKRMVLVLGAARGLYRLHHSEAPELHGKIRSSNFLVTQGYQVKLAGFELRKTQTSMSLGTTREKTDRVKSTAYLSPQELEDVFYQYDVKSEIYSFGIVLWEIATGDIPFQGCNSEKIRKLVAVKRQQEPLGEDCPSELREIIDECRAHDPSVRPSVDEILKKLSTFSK

On to `Cc1ncsc1-c1ccc(CNC(=O)[C@@H]2C[C@@H](O)CN2C(=O)[C@@H](NC(=O)CCCCCn2cc(-c3cnc(N)c4c(-c5ccc(NS(=O)(=O)C(F)F)c(O[C@@H](C)c6ccc(F)cc6)c5)nn(C)c34)cn2)C(C)(C)C)cc1` [Compound 1066, (2S,4R)-1-[(2S)-2-[6-(4-{4-amino-3-[4-(difluoromethanesulfonamido)-3-[(1S)-1-(4-fluorophenyl)ethoxy]phenyl]-1-methyl-1H-pyrazolo[4,3-c]pyridin-7-yl}-1H-pyrazol-1-yl)hexanamido]-3,3-dimethylbutanoyl]-4-hydroxy-N-{[4-(4-methyl-1,3-thiazol-5-yl)phenyl]methyl}pyrrolidine-2-carboxamide], for which the Kd in assay [1] was less than 10 nM. In addition, in assay [2] (Table 27), the IC50 lay within 1000 to 10000 nM.

With `Cc1ncsc1-c1ccc(CNC(=O)[C@@H]2C[C@@H](O)CN2C(=O)[C@@H](NC(=O)C2(F)CC2)C(C)(C)C)c(OCCOCCOCCOCCn2cc(-c3cnc(N)c4c(-c5ccc(NS(=O)(=O)C(F)F)c(O[C@@H](C)c6ccc(F)cc6)c5)nn(C)c34)cn2)c1` [Compound 1061, (2S,4R)-N-({2-[2-(2-{2-[2-(4-{4-amino-3-[4-(difluoromethanesulfonamido)-3-[(1S)-1-(4-fluorophenyl)ethoxy]phenyl]-1-methyl-1H-pyrazolo[4,3-c]pyridin-7-yl}-1H-pyrazol-1-yl)ethoxy]ethoxy}ethoxy)ethoxy]-4-(4-methyl-1,3-thiazol-5-yl)phenyl}methyl)-1-[(2S)-2-[(1-fluorocyclopropyl)formamido]-3,3-dimethylbutanoyl]-4-hydroxypyrrolidine-2-carboxamide], the Kd in assay [1] was less than 10 nM. Further, the IC50 in assay [2] (Table 27) lay within 1000 to 10000 nM. Turning to `C[C@H](Oc1cc(-c2nn(C)c3c(-c4cnn(C5CCN(C(=O)c6ccc7c(N8CCC(=O)NC8=O)coc7c6)CC5)c4)cnc(N)c23)ccc1NS(=O)(=O)C(F)F)c1ccc(F)cc1` [Compound 1117, N-{4-[4-amino-7-(1-{1-[3-(2,4-dioxo-1,3-diazinan-1-yl)-1-benzofuran-6-carbonyl]piperidin-4-yl}-1H-pyrazol-4-yl)-1-methyl-1H-pyrazolo[4,3-c]pyridin-3-yl]-2-[(1S)-1-(4-fluorophenyl)ethoxy]phenyl}-1,1-difluoromethanesulfonamide], in assay [1], the Kd was less than 10 nM. For the same compound, the IC50 in assay [2] (Table 27) fell in the range of 1000 to 10000 nM. With `Cc1ncsc1-c1ccc(CNC(=O)[C@@H]2C[C@@H](O)CN2C(=O)[C@@H](NC(=O)CCCCCCCn2cc(-c3cnc(N)c4c(-c5ccc(NS(=O)(=O)C(F)F)c(O[C@@H](C)c6ccc(F)cc6)c5)nn(C)c34)cn2)C(C)(C)C)cc1` [Compound 1067, (2S,4R)-1-[(2S)-2-[8-(4-{4-amino-3-[4-(difluoromethanesulfonamido)-3-[(1S)-1-(4-fluorophenyl)ethoxy]phenyl]-1-methyl-1H-pyrazolo[4,3-c]pyridin-7-yl}-1H-pyrazol-1-yl)octanamido]-3,3-dimethylbutanoyl]-4-hydroxy-N-{[4-(4-methyl-1,3-thiazol-5-yl)phenyl]methyl}pyrrolidine-2-carboxamide], the Kd in assay [1] was less than 10 nM. For the same compound, the IC50 in assay [2] (Table 27) was less than 1000 nM. `Cc1ncsc1-c1ccc(CNC(=O)[C@@H]2C[C@@H](O)CN2C(=O)[C@@H](NC(=O)CCCCC#Cc2cnc(N)c3c(-c4ccc(NS(=O)(=O)C(F)F)c(O[C@@H](C)c5ccc(F)cc5)c4)nn(C)c23)C(C)(C)C)cc1` [Compound 1026, (2S,4R)-1-[(2S)-2-(7-{4-amino-3-[4-(difluoromethanesulfonamido)-3-[(1S)-1-(4-fluorophenyl)ethoxy]phenyl]-1-methyl-1H-pyrazolo[4,3-c]pyridin-7-yl}hept-6-ynamido)-3,3-dimethylbutanoyl]-4-hydroxy-N-{[4-(4-methyl-1,3-thiazol-5-yl)phenyl]methyl}pyrrolidine-2-carboxamide]: the Kd in assay [1] was 10 to 1000 nM. The IC50 in assay [2] (Table 27) fell in the range of 1000 to 10000 nM. In the case of `Cc1ncsc1-c1ccc(CNC(=O)[C@@H]2C[C@@H](O)CN2C(=O)[C@@H](NC(=O)CCCCOC(=O)c2ccc(-c3cnc(N)c4c(-c5ccc(NS(=O)(=O)C(F)F)c(O[C@@H](C)c6ccc(F)cc6)c5)nn(C)c34)cc2)C(C)(C)C)cc1` [Compound 1064, 4-{[(2S)-1-[(2S,4R)-4-hydroxy-2-({[4-(4-methyl-1,3-thiazol-5-yl)phenyl]methyl}carbamoyl)pyrrolidin-1-yl]-3,3-dimethyl-1-oxobutan-2-yl]carbamoyl}butyl 4-{4-amino-3-[4-(difluoromethanesulfonamido)-3-[(1 S)-1-(4-fluorophenyl)ethoxy]phenyl]-1-methyl-1H-pyrazolo[4,3-c]pyridin-7-yl}benzoate], the dissociation constant Kd in assay [1] fell in the range of 10 to 1000 nM. Besides, the IC50 in assay [2] (Table 27) was in the range of 1000 to 10000 nM. As to `C[C@H](Oc1cc(-c2nn(C)c3c(-c4cnn(C5CCNC(C(F)(F)F)C5)c4)cnc(N)c23)ccc1NS(=O)(=O)C(F)F)c1ccc(F)cc1` (stereo partly drawn) [Compound 149, N-(4-(4-amino-1-methyl-7-(1-(2-(trifluorometh-yl)piperidin-4-yl)-1H-pyrazol-4-yl)-1H-pyrazolo[4,3-c]pyridin-3-yl)-2-((S)-1-(4-fluoro-phenyl)ethoxy)phenyl)-1,1-difluoro-methanesulfonamide], the IC50 in assay [2] (Table 24) is less than 1000 nM. Turning to `C[C@H](Oc1cc(-c2nn(C)c3c(-c4cnn(C5CCN(CCc6cccc7c6C(=O)N(C6CCC(=O)NC6=O)C7=O)CC5)c4)cnc(N)c23)ccc1NS(=O)(=O)C(F)F)c1ccc(F)cc1` (stereo partly drawn) [Compound 1136, N-(4-{4-amino-7-[1-(1-{2-[2-(2,6-dioxopiperidin-3-yl)-1,3-dioxo-2,3-dihydro-1H-isoindol-4-yl]ethyl}piperidin-4-yl)-1H-pyrazol-4-yl]-1-methyl-1H-pyrazolo[4,3-c]pyridin-3-yl}-2-[(1S)-1-(4-fluorophenyl)ethoxy]phenyl)-1,1-difluoromethanesulfonamide], the Kd in assay [1] is less than 10 nM. In addition, the IC50 in assay [2] (Table 27) lay in the range of 1000 to 10000 nM. On the same counts, the results for `C[C@H](Oc1cc(-c2nn(C)c3c(-c4cnn(C5CCN(C(=O)c6ccc(C(=O)NC7CCC(=O)NC7=O)cc6)CC5)c4)cnc(N)c23)ccc1NS(=O)(=O)C(F)F)c1ccc(F)cc1` (stereo partly drawn) [Compound 1086, 4-[4-(4-{4-amino-3-[4-(difluoromethanesulfonamido)-3-[(1S)-1-(4-fluorophenyl)ethoxy]phenyl]-1-methyl-1H-pyrazolo[4,3-c]pyridin-7-yl}-1H-pyrazol-1-yl)piperidine-1-carbonyl]-N-(2,6-dioxopiperidin-3-yl)benzamide] are less than 10 nM and 1000 to 10000 nM.

Take `[2H]C([2H])([2H])N1CCC(n2cc(-c3cnc(N)c4c(-c5ccc(NS(=O)(=O)C(F)F)c(O[C@@H](C)c6ccc(F)cc6)c5)nn(C)c34)cn2)CC1(C)C` (stereo partly drawn) [Compound 152, N-(4-(4-amino-7-(1-(2,2-dimethyl-1-(methyl-d3)piperidin-4-yl)-1H-pyrazol-4-yl)-1-methyl-1H-pyrazolo[4,3-c]pyridin-3-yl)-2-((S)-1-(4-fluorophenyl)ethoxy)phenyl)-1,1-difluoromethanesulfonamide]: the IC50 in assay [2] (Table 24) was less than 1000 nM.

The values are drawn from patent publication US20250115598A1 (Anaxis Pharma Pty Ltd, priority 2021, published 2025).
